Earlier results on one compound are cited in US20130071408A1, “Methods for Diagnosis and Treatment of Non-Insulin Dependent Diabetes Mellitus” (priority 2010, published 2013).

The IC50 is the concentration that gives 50% inhibition.

This data set has as its target CD44 and HA (Homo sapiens, UniProt P16070). The following applies: cell-based assay; read-out: IC50 value, inhibits the binding of CD44 and HA.

CD44 and HA, sequence (P16070 21-742): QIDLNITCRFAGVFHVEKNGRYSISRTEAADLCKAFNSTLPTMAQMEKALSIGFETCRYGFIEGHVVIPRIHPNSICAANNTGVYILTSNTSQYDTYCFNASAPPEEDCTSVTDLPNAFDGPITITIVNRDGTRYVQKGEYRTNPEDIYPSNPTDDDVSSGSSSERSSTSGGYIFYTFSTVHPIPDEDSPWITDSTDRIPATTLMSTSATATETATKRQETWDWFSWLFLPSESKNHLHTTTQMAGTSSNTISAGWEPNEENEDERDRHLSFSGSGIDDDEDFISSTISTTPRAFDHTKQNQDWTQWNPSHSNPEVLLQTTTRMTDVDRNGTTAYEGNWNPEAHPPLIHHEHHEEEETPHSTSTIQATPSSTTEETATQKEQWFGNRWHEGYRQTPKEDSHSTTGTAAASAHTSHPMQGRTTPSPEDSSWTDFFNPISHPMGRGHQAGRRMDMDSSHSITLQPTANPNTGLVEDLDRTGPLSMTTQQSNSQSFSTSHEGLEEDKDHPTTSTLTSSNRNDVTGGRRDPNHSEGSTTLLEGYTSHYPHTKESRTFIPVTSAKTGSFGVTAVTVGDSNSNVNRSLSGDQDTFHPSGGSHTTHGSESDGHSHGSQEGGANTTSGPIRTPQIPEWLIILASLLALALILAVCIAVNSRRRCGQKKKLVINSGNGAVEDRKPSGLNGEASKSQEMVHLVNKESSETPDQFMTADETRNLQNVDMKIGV

On to `CCCCCCC(O)CCCC(CCCCCCCCCCCCCC(O)C(=O)O)OC1OCC(O)C(O)C1OC1OCC(OC(C)=O)C(O)C1OC1OC(COC(C)=O)C(O)C(O)C1O` (stereo not shown) [F-19848 A], for which the IC50 is 23.5 µM.
